# Assay results as given in US20110015162A1, “15,16-Methylene-17-hydroxy-19-nor-21-carboxylic acid-steroid Y-lactone derivative, use thereof and medicinal products containing the derivative” (Bayer Schering Pharma Aktiengesellschaft, priority 2007, published 2011).
# How the values were obtained:
# progesterone receptor = molecular target: T1, progesterone receptor (Homo sapiens, UniProt P06401); assay: Progesterone receptor binding test; details: for Progesterone receptor (PR) Competition factor: CF 1 = affinity of progesterone, CF >1 lower affinity, <1 higher affinity; for CF PR/CF MR: ratio of competition factors CF(PR) and CF(MR)
# T1 construct: made in house; host or cells: Hi5 insect cells (cytosol)
# T1 sequence (P06401 1-933): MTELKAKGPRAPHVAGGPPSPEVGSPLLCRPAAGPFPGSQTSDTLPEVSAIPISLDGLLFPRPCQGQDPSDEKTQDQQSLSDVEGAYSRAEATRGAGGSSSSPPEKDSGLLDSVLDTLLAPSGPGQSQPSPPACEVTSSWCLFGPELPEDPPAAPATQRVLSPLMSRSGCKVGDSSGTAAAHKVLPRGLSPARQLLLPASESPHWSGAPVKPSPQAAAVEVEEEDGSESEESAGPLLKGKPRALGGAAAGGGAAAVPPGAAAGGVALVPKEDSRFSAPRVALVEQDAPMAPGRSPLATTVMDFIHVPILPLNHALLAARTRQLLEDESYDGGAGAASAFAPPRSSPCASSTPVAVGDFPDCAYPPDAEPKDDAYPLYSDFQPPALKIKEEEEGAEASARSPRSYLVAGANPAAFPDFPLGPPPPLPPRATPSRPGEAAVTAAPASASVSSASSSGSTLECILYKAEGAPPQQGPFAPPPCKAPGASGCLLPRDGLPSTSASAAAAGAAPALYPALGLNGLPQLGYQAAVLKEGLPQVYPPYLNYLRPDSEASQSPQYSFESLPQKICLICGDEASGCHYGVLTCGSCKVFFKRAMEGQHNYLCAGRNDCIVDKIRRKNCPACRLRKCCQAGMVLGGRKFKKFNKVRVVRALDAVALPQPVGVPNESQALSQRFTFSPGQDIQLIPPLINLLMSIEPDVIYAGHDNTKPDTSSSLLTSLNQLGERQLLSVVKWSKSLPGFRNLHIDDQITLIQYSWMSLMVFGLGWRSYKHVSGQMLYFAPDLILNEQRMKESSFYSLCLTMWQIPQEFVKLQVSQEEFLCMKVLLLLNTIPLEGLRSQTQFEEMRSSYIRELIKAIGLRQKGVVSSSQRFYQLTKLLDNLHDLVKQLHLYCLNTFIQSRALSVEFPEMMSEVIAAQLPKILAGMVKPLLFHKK
# Experimental: 1. Progesterone Receptor Binding Test:
# Using cytosol from progesterone receptor-expressing insect cells (Hi5), competitive binding to the progesterone receptor was determined from the ability to displace ^3H-progesterone as reference substance from the receptor.
# [1] = molecular target: T2, mineralocorticoid receptor (Homo sapiens, UniProt P08235); assay: Mineralocorticoid receptor binding test; parameters: made in house; host or cells: Hi5 insect cells (cytosol); details: reference substance 3H-aldosterone, cytosol from MR-expressing insect cells (Hi5)
# T2 sequence (P08235 1-984): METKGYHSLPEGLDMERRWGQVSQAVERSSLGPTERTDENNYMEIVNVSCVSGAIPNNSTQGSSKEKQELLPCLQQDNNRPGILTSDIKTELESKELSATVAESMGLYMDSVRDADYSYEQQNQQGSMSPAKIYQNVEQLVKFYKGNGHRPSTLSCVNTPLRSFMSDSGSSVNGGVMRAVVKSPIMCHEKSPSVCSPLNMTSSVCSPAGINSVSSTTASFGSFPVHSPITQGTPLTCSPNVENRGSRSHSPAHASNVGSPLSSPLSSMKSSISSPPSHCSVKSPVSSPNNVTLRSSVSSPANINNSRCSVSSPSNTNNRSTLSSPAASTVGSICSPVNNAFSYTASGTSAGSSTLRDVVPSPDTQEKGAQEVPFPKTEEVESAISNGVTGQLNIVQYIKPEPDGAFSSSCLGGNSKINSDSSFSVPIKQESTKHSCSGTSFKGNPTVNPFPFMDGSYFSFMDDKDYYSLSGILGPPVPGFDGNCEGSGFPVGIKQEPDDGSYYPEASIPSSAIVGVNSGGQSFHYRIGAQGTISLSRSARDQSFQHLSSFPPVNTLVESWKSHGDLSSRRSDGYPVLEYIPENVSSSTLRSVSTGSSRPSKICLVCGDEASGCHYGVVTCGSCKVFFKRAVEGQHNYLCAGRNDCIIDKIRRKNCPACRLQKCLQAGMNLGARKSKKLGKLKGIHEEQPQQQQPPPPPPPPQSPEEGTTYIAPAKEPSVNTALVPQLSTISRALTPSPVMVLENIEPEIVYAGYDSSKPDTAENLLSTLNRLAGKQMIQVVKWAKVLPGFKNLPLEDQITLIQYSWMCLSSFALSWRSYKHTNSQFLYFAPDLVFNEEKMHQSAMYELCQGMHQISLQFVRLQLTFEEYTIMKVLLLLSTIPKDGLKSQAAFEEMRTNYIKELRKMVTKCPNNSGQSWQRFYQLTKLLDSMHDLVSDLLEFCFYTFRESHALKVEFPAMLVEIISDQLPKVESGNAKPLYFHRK
# Outline: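 Competitive binding measured with cytosol from Hi5 insect cells expressing the receptor. Displacement of ^3H-aldosterone as reference ligand gave the readout.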
Structure (SMILES),IC50 (progesterone receptor) [nM],Progesterone receptor (PR) Competition factor (progesterone receptor),CF PR/CF MR (progesterone receptor),Mineralocorticoid receptor (MR) Competition factor [1]
"CC[C@@H]1CC2=CC(=O)CC[C@@H]2[C@H]2CC[C@@]3(C)[C@@H]([C@@H]4C[C@@H]4[C@@]34C=CC(=O)O4)[C@H]12 [Example 24A, 7α-Ethyl-17β-hydroxy-15β,16β-methylene-19-nor-17α-pregna-4,20(Z)-dien-3-one-21-carboxylic acid γ-lactone]",1300,41.55,21.87,1.9
"C=C[C@@H]1CC2=CC(=O)CC[C@@H]2[C@H]2CC[C@@]3(C)[C@@H]([C@@H]4C[C@@H]4[C@@]34C=CC(=O)O4)[C@@H]21 [Example 25A, 17β-Hydroxy-15β,16β-methylene-7α-vinyl-19-nor-17α-pregna-4,20(Z)-dien-3-one-21-carboxylic acid γ-lactone]",150,6.14,0.65,9.4
"C[C@]12CC[C@H]3[C@@H](CCC4=C(Cl)C(=O)CC[C@@H]43)[C@@H]1[C@@H]1C[C@@H]1[C@@]21C=CC(=O)O1 [Example 27, 4-Chloro-17β-hydroxy-15β,16β-methylene-19-nor-17α-pregna-4,20(Z)-dien-3-one-21-carboxylic acid γ-lactone]",2900,101.93,2.17,47.0
